Measurements as given in ChEMBL document CHEMBL3879907, “8-azabicyclo[3.2.1]octane compounds as mu opioid receptor antagonists” (2014).

Experiments:
[1] = target: Kappa-type opioid receptor (Cavia porcellus, UniProt P41144); experiment: Displacement of [3H]-diprenorphine from guinea pig kappa opioid receptor expressed in CHOK1 cell membranes; conditions: cho-k1
[2] = target: Delta-type opioid receptor (Homo sapiens, UniProt P41143); experiment: Displacement of [3H]-diprenorphine from human delta opioid receptor expressed in cell membranes
[3] = target: Mu-type opioid receptor (Homo sapiens) (UniProt P35372); experiment: Intrinsic activity at human mu opioid receptor expressed in CHOK1 cell membranes at 0.00001 to 20 uM after 30 mins by GTP-Eu nucleotide exchange assay relative to DAMGO; format: functional; conditions: CHO-K1
Chain of Mu-type opioid receptor (Homo sapiens) (P35372 whole entry): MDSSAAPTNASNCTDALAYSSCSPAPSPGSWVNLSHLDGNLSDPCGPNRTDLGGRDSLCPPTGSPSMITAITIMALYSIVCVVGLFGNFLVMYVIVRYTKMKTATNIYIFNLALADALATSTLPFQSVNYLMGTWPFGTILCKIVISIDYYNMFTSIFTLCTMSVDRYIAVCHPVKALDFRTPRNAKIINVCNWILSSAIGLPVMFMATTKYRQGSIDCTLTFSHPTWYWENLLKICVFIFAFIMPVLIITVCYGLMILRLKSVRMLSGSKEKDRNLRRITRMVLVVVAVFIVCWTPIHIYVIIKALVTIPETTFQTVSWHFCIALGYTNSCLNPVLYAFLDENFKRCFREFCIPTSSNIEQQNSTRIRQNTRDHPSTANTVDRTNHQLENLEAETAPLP

Chain of Delta-type opioid receptor (P41143 whole entry): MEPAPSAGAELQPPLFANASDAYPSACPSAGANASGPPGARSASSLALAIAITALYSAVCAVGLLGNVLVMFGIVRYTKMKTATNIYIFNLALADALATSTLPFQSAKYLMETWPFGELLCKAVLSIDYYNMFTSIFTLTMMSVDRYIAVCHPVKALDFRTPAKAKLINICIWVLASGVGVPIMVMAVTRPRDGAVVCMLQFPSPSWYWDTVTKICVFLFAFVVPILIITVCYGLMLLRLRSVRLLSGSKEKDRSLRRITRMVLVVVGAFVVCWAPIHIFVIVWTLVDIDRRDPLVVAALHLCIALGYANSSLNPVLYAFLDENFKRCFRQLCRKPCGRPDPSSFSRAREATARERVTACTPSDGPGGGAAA
Chain of Kappa-type opioid receptor (P41144 whole entry): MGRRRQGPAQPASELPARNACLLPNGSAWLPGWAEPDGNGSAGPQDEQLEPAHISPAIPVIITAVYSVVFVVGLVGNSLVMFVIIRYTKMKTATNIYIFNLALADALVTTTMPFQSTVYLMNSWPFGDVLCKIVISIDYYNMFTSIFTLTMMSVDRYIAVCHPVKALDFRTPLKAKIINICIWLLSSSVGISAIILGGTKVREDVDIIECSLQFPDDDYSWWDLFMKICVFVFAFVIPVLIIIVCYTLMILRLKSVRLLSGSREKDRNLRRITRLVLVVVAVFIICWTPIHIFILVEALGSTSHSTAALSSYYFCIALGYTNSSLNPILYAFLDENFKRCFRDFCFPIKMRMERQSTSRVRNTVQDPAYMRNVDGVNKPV

Row | SMILES | pKi [1] | pKi [2] | Intrinsic activity [3] [%]
1 | CCC(CC)C(=O)N(CCN1[C@@H]2CC[C@H]1C[C@@H](c1cccc(O)c1)C2)Cc1ccccc1 | 7 to 10.5 | 7 to 10.5 | < 40
2 | CC(=O)N(CCCN1[C@@H]2CC[C@H]1C[C@@H](c1cccc(C(N)=O)c1)C2)CC1CCCCC1 | 7 to 10.5 | 7 to 10.5 | < 40
3 | NC(=O)c1cccc([C@H]2C[C@H]3CC[C@@H](C2)N3CCN(Cc2c(F)cccc2F)C(=O)[C@H]2CC[C@H](O)CC2)c1.O=C(O)C(F)(F)F | 7 to 10.5 | 7 to 10.5 | < 40
4 | O=C(Nc1cccc(F)c1)N(CCN1[C@@H]2CC[C@H]1C[C@@H](c1cccc(O)c1)C2)CC1CCCCC1 | 7 to 10.5 | 7 to 10.5 | < 40
5 | CC(=O)N(Cc1ccccc1)[C@H](C)CN1[C@@H]2CC[C@H]1C[C@@H](c1cccc(O)c1)C2 | 7 to 10.5 | 7 to 10.5 | < 40
6 | C[C@H](O)C(=O)N(CCN1[C@@H]2CC[C@H]1C[C@@H](c1cccc(C(N)=O)c1)C2)CC1CCC(F)(F)CC1.O=C(O)C(F)(F)F | 7 to 10.5 | 7 to 10.5 | < 40
7 | NC(=O)c1cccc([C@H]2C[C@H]3CC[C@@H](C2)N3CCN(Cc2c(F)cccc2F)C(=O)[C@H](O)CO)c1.O=C(O)C(F)(F)F | 7 to 10.5 | 7 to 10.5 | < 40
8 | O=C(NCc1ccccc1)N(CCN1[C@@H]2CC[C@H]1C[C@@H](c1cccc(O)c1)C2)CC1CCCCC1 | 7 to 10.5 | 7 to 10.5 | < 40
9 | NC(=O)c1cccc([C@H]2C[C@H]3CC[C@@H](C2)N3CCN(CC2CCC2)C(=O)[C@H](O)CO)c1.O=C(O)C(F)(F)F | 7 to 10.5 | 7 to 10.5 | < 40
10 | NC(=O)c1cccc([C@H]2C[C@H]3CC[C@@H](C2)N3CCN(Cc2ccccc2)C(=O)[C@@H](O)CO)c1.O=C(O)C(F)(F)F | 7 to 10.5 | 7 to 10.5 | < 40
11 | CS(=O)(=O)N(CCN1[C@@H]2CC[C@H]1C[C@@H](c1cccc(C(N)=O)c1)C2)CC1CCCC1.O=C(O)C(F)(F)F | 7 to 10.5 | 7 to 10.5 | < 40
12 | O=C(C1CCCC1)N(CCN1[C@@H]2CC[C@H]1C[C@@H](c1cccc(O)c1)C2)Cc1ccccc1 (single isomer, unassigned) | 7 to 10.5 | 7 to 10.5 | < 40
13 | NC(=O)c1cccc([C@H]2C[C@H]3CC[C@@H](C2)N3CCN(CC2CCCC2)C(=O)[C@H](O)CO)c1.O=C(O)C(F)(F)F | 7 to 10.5 | 7 to 10.5 | < 40
14 | NC(=O)c1cccc([C@H]2C[C@H]3CC[C@@H](C2)N3CCN(CCc2ccc(F)cc2)C(=O)CO)c1.O=C(O)C(F)(F)F | 7 to 10.5 | 7 to 10.5 | < 40
15 | CCN(CC)CC[C@H](O)C(=O)N(CCN1[C@@H]2CC[C@H]1C[C@@H](c1cccc(C(N)=O)c1)C2)CC1CCCCC1 | 7 to 10.5 | 7 to 10.5 | < 40
16 | CC(C)CC(=O)N(CCN1[C@@H]2CC[C@H]1C[C@@H](c1cccc(O)c1)C2)Cc1cccc(F)c1 | 7 to 10.5 | 7 to 10.5 | < 40
17 | CS(=O)(=O)CC(=O)N(CCN1[C@@H]2CC[C@H]1C[C@@H](c1cccc(C(N)=O)c1)C2)Cc1ccc(C(F)(F)F)cc1.O=C(O)C(F)(F)F | 7 to 10.5 | 7 to 10.5 | < 40
18 | C[C@H](CN1[C@@H]2CC[C@H]1C[C@@H](c1cccc(O)c1)C2)N(Cc1ccccc1)C(=O)CC1CCCC1 | 7 to 10.5 | 7 to 10.5 | < 40
19 | O=C(CO)N(CCN1[C@@H]2CC[C@H]1C[C@@H](c1cccc(O)c1)C2)Cc1c(F)cccc1F | 7 to 10.5 | 7 to 10.5 | < 40
20 | CS(=O)(=O)CC(=O)N(CCN1[C@@H]2CC[C@H]1C[C@@H](c1cccc(C(N)=O)c1)C2)Cc1ccccc1.O=C(O)C(F)(F)F | 7 to 10.5 | 7 to 10.5 | < 40
21 | CS(=O)(=O)CC(=O)N(CCN1[C@@H]2CC[C@H]1C[C@@H](c1cccc(C(N)=O)c1)C2)Cc1c(F)cccc1F | 7 to 10.5 | 7 to 10.5 | < 40
22 | NC(=O)c1cccc([C@H]2C[C@H]3CC[C@@H](C2)N3CCN(CC2CCCCC2)C(=O)CCC(=O)O)c1 | 7 to 10.5 | 7 to 10.5 | < 40
23 | CS(=O)(=O)CC(=O)N(CCN1[C@@H]2CC[C@H]1C[C@@H](c1cccc(C(N)=O)c1)C2)CC1CCC(F)(F)CC1.O=C(O)C(F)(F)F | 7 to 10.5 | 7 to 10.5 | < 40
24 | O=C(Cc1ccccc1)N(CCN1[C@@H]2CC[C@H]1C[C@@H](c1cccc(O)c1)C2)CC1CCCCC1 | 7 to 10.5 | 7 to 10.5 | < 40
25 | O=C(O)CCC(=O)N(CCN1[C@@H]2CC[C@H]1C[C@@H](c1cccc(O)c1)C2)Cc1c(F)cccc1F | 7 to 10.5 | 7 to 10.5 | < 40

Row | SMILES | pKi [1] | pKi [2] | Intrinsic activity [3] [%]
26 | NC(=O)c1cccc([C@H]2C[C@H]3CC[C@@H](C2)N3CCN(CC2CCC2)C(=O)CO)c1.O=C(O)C(F)(F)F | 7 to 10.5 | 7 to 10.5 | < 40
27 | O=C(O)CC1(CC(=O)N(CCN2[C@@H]3CC[C@H]2C[C@@H](c2cccc(O)c2)C3)CC2CCCCC2)CCCCC1 | 7 to 10.5 | 7 to 10.5 | < 40
28 | CC(C)(O)C(=O)N(CCN1[C@@H]2CC[C@H]1C[C@@H](c1cccc(C(N)=O)c1)C2)Cc1ccccc1.O=C(O)C(F)(F)F | 7 to 10.5 | 7 to 10.5 | < 40
29 | CCCCCNC(=O)N(CCN1[C@@H]2CC[C@H]1C[C@@H](c1cccc(O)c1)C2)CC1CCCCC1 | 7 to 10.5 | 7 to 10.5 | < 40
30 | O=C(CO)N(CCN1[C@@H]2CC[C@H]1C[C@@H](c1cccc(O)c1)C2)Cc1cccc(F)c1 | 7 to 10.5 | 7 to 10.5 | < 40
31 | CC(=O)N(CCN1[C@@H]2CC[C@H]1C[C@@H](c1cccc(O)c1)C2)Cc1ccccc1 | 7 to 10.5 | 7 to 10.5 | < 40
32 | O=C(CO)N(CCN1[C@@H]2CC[C@H]1C[C@@H](c1cccc(O)c1)C2)CC1CCCCC1 | 7 to 10.5 | 7 to 10.5 | < 40
33 | CN(C)[C@@H](Cc1ccccc1)C(=O)N(CCN1[C@@H]2CC[C@H]1C[C@@H](c1cccc(C(N)=O)c1)C2)CC1CCCCC1 | 7 to 10.5 | 7 to 10.5 | < 40
34 | NC(=O)c1cccc([C@H]2C[C@H]3CC[C@@H](C2)N3CCN(CC(F)(F)c2ccccc2)C(=O)[C@@H](O)CO)c1.O=C(O)C(F)(F)F | 7 to 10.5 | 7 to 10.5 | < 40
35 | O=C(Nc1ccc2c(c1)OCO2)N(CCN1[C@@H]2CC[C@H]1C[C@@H](c1cccc(O)c1)C2)CC1CCCCC1 | 7 to 10.5 | 7 to 10.5 | < 40
36 | NC(=O)c1cccc([C@H]2C[C@H]3CC[C@@H](C2)N3CCN(CCc2cccc(F)c2)C(=O)CO)c1.O=C(O)C(F)(F)F | 7 to 10.5 | 7 to 10.5 | < 40
37 | O=C(Nc1ccc(OC(F)F)cc1)N(CCN1[C@@H]2CC[C@H]1C[C@@H](c1cccc(O)c1)C2)CC1CCCCC1 | 7 to 10.5 | 7 to 10.5 | < 40
38 | CN(C)S(=O)(=O)N(CCN1[C@@H]2CC[C@H]1C[C@@H](c1cccc(C(N)=O)c1)C2)Cc1ccc(C(F)(F)F)cc1.O=C(O)C(F)(F)F | 7 to 10.5 | 7 to 10.5 | < 40
39 | NC(=O)c1cccc([C@H]2C[C@H]3CC[C@@H](C2)N3CCN(CC2CCCCC2)C(=O)[C@@H](O)Cc2ccccc2)c1 | 7 to 10.5 | 7 to 10.5 | < 40
40 | O=C(CO)N(CCN1[C@@H]2CC[C@H]1C[C@@H](c1cccc(O)c1)C2)Cc1ccc(C(F)(F)F)cc1 | 7 to 10.5 | 7 to 10.5 | < 40
41 | CC(C)NC(=O)N(CCN1[C@@H]2CC[C@H]1C[C@@H](c1cccc(C(N)=O)c1)C2)CC1CCCCC1 | 7 to 10.5 | 7 to 10.5 | < 40
42 | CS(=O)(=O)CC(=O)N(CCCN1[C@@H]2CC[C@H]1C[C@@H](c1cccc(C(N)=O)c1)C2)CC1CCCCC1 | 7 to 10.5 | 7 to 10.5 | < 40
43 | CC(C)(C)C(=O)N(CCN1[C@@H]2CC[C@H]1C[C@@H](c1cccc(C(N)=O)c1)C2)CC1CCCC1.O=C(O)C(F)(F)F | 7 to 10.5 | 7 to 10.5 | < 40
44 | NC(=O)c1cccc([C@H]2C[C@H]3CC[C@@H](C2)N3CCN(CC2CCC2)C(=O)[C@@H](O)CO)c1.O=C(O)C(F)(F)F | 7 to 10.5 | 7 to 10.5 | < 40
45 | CC(CO)(CO)C(=O)N(CCN1[C@@H]2CC[C@H]1C[C@@H](c1cccc(C(N)=O)c1)C2)CC1CCC(F)(F)CC1.O=C(O)C(F)(F)F | 7 to 10.5 | 7 to 10.5 | < 40
46 | N#CCC(=O)N(CCN1[C@@H]2CC[C@H]1C[C@@H](c1cccc(C(N)=O)c1)C2)Cc1ccccc1.O=C(O)C(F)(F)F | 7 to 10.5 | 7 to 10.5 | < 40
47 | CC(C)(CO)C(=O)N(CCN1[C@@H]2CC[C@H]1C[C@@H](c1cccc(C(N)=O)c1)C2)CC1CCCC1.O=C(O)C(F)(F)F | 7 to 10.5 | 7 to 10.5 | < 40
48 | O=C([C@@H](O)C1CCCCC1)N(CCN1[C@@H]2CC[C@H]1C[C@@H](c1cccc(O)c1)C2)CC1CCCCC1 | 7 to 10.5 | 7 to 10.5 | < 40
49 | NC(=O)c1cccc([C@H]2C[C@H]3CC[C@@H](C2)N3CCN(CC2CCCCC2)C(=O)NCc2ccc(F)cc2)c1 | 7 to 10.5 | 7 to 10.5 | < 40
50 | CN[C@@H](CO)C(=O)N(CCN1[C@@H]2CC[C@H]1C[C@@H](c1cccc(C(N)=O)c1)C2)CC1CCCCC1.O=C(O)C(F)(F)F.O=C(O)C(F)(F)F | 7 to 10.5 | 7 to 10.5 | < 40
